Data: patent EP4545549B1, “INSECT NEUROPEPTIDES” (Solasta Bio Limited, priority 2023, dated 2025)
Where two headings read alike, the source gives them in different places. Residues, ends and D or L forms follow the SMILES beside them.

Tests used:
Bumblebee = experiment: Bee oral toxicity test (adapted from OECD Test No. 247: Bumblebee, Acute Oral Toxicity Test); assay type: in vivo; conditions: after 96 hours of application; compared with sucrose or vehicle and Imidacloprid; Figure 10
Description: Bee oral testing protocol was carried out adapted from OECD Test No. 247: Bumblebee, Acute Oral Toxicity Test. The toxicity of SB-P-46 was compared with a negative control of sucrose or vehicle, and with a current commercial insecticide Imidacloprid.

Myzus persicae = conditions: unformulated SB-P-46; leaf dip; mortality assessed at 72, 96 and 120 hours; compared to vehicle and Spirotetramat; Figures 6 and 7
Description: The assay was carried out based on IRAC susceptibility test method 019 (https://irac-online.org/methods/aphids-adultnymphs/).
Dip a 2.5 cm leaf disc into 3 ml of treatment solution allowing the treatment to coat the leaf. Leave the disc to dry for 1 hour and place onto the set agar. Place insects (aphids) onto each of the leaf discs. Each unit is sealed with a close-fitting, ventilated lid. Place the agar dishes in a small plastic tray lined with moist tissue paper and ensure the water trays in the bottom of the incubator are filled with clean water and place within the incubator. An assessment of mortality is made at 72, 96 and 120 hours. Leaf dip assays were performed with unformulated SB-P-46, and compared to a negative control vehicle and a current commercial insecticide Spirotetramat.

[1] = test system: Amrasca biguttula (leaf hopper); conditions: unformulated SB-P-46; 3 and 7 days after application; Figure 16
Source text: (§1) The data has been processed in the ARM Field Trials software under license.

Aphis fabae = conditions: unformulated SB-P-46; for reduction in naturally infested Aphis fabae numbers as a percentage of untreated control crop: vining peas
Source text: as §1

Aphis gossypii = conditions: Greece; cotton; unformulated SB-P-46; counted 3 days following application; Figure 14
Source text: as §1
AgriScience conducted a field trial in Greece, investigating the efficacy of insecticidal peptides on aphids on cotton crop.

CC(C)C[C@H](NC(=O)[C@H](CCCNC(=N)N)NC(=O)[C@@H]1CCCN1C(=O)[C@H](CO)NC(=O)[C@H](Cc1ccccc1)NC(=O)[C@@H]1CCCN1C(=O)[C@@H]1CCCN1C(=O)[C@H](CO)NC(=O)[C@H](Cc1ccc(O)cc1)NC(=O)[C@@H]1CCCN1C(=O)[C@@H]1CCCN1C(=O)[C@@H](N)CO)C(N)=O [SB-P-46, [Hy]-SPPYSPPFSPRL-[NH2]] (H-SPPYSPPFSPRL-NH2)
bee oral toxicity (% survival) (Bumblebee): far lower toxicity to key pollinator species such as bees compared to broad spectrum chemical insecticides such as Imidacloprid
activity against Myzus persicae (Myzus persicae): good activity
activity against naturally infested Amrasca biguttula (leaf hopper) in field trials [1]: acted comparably to Flipper insecticide
reduction in naturally infested Aphis fabae numbers as a percentage of untreated control crop (Aphis fabae; Wigtoft location, counted 4 days following application, Figure 12): similarly efficacious activity
reduction in naturally infested Aphis fabae numbers as a percentage of untreated control crop (Aphis fabae; field trial 1, Chatteris location, counted 14 days following application, Figure 11): performed comparably to the conventional insecticides Stealth and Teppeki (sprayed as Treatment 1), followed by Aphox (sprayed as Treatment 2)
reduction in naturally infested Aphis fabae numbers as a percentage of untreated control crop (Aphis fabae; third trial (slot trial), Holbeach location, counted 7 days following application, low aphid infestation, Figure 13): performed as efficaciously as the conventional pesticides tested
activity against naturally infested Aphis fabae in field trials (Aphis fabae; 4 and 8 days after application, Figure 15): acted comparably to Hallmark Zeon insecticide
reduction in naturally infested Aphis gossypii numbers as a percentage of untreated control crop (Aphis gossypii): performing with close efficacy to the conventional pesticide equivalent tested
